Reference: ChEMBL document CHEMBL1201862, “PubChem BioAssay data set” (2004)
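Growth conditions: 96-well plates. Treatment: test compound, 48 hours, 5 concentrations. Analysis: linear interpolation between bracketing concentrations; unreached endpoints set to highest concentration. Abbreviation: GI50, concentration required for 50% inhibition of growth.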 Active and inactive are the calls of the source. Rule as the data show it: active = GI50 up to about 1.1 µM and inactive = higher.

What was measured:
Experiment in all cases: NCI-60 cell line screen, 48 h
786-0 = system: 786-0
BT-549 = system: BT-549
DU-145 = system: DU-145
Hs-578T = system: Hs-578T
MDA-MB-231 = system: MDA-MB-231
MDA-MB-435 = system: MDA-MB-435
MDA-N = system: MDA-N
PC-3 = system: PC-3
T47D = system: T47D

SMILES	GI50 (786-0)	GI50 (BT-549)	GI50 (DU-145)	GI50 (Hs-578T)	GI50 (MDA-MB-231)	GI50 (MDA-MB-435)	GI50 (MDA-N)	GI50 (PC-3)	GI50 (T47D)
COc1ccc2oc(=N)c(C(=O)Nc3ccccc3)cc2c1	3.09 µM (inactive)	17.7 µM (inactive)	33.7 µM (inactive)	15 µM (inactive)	23.4 µM (inactive)	15.3 µM (inactive)	18.5 µM (inactive)	32.9 µM (inactive)	4.41 µM (inactive)
COc1cc([C@@H]2c3cc4c(cc3[C@@H](OC3OC5COC(C)OC5C(O)C3O)[C@H]3COC(=O)[C@H]23)OCO4)cc(OC)c1O (some centres not stated)		2.4 µM (inactive)	0.849 µM (active)	0.735 µM (active)	1.7 µM (inactive)	28.2 µM (inactive)	0.968 µM (active)	0.661 µM (active)	0.897 µM (active)
